According to US20210122763A1, “OGA INHIBITOR COMPOUNDS” (Janssen Pharmaceutica NV, priority 2018, published 2021):

Legend:
[1] = target: T1, recombinant human Meningioma Expressed Antigen 5 (MGEA5), also referred to as O-GlcNAcase (OGA) (Homo sapiens, UniProt O60502); test: OGA biochemical assay (inhibition of FM-GlcNAc hydrolysis, fluorescence); settings: for Emax: read-out: Enzymatic Emax (%); for IC50: read-out: Enzymatic hOGA, pIC50 (converted)
T1 construct: Full length OGA enzyme was purchased at OriGene (cat #TP322411); purchased OriGene TP322411
T1 sequence (O60502 1-916): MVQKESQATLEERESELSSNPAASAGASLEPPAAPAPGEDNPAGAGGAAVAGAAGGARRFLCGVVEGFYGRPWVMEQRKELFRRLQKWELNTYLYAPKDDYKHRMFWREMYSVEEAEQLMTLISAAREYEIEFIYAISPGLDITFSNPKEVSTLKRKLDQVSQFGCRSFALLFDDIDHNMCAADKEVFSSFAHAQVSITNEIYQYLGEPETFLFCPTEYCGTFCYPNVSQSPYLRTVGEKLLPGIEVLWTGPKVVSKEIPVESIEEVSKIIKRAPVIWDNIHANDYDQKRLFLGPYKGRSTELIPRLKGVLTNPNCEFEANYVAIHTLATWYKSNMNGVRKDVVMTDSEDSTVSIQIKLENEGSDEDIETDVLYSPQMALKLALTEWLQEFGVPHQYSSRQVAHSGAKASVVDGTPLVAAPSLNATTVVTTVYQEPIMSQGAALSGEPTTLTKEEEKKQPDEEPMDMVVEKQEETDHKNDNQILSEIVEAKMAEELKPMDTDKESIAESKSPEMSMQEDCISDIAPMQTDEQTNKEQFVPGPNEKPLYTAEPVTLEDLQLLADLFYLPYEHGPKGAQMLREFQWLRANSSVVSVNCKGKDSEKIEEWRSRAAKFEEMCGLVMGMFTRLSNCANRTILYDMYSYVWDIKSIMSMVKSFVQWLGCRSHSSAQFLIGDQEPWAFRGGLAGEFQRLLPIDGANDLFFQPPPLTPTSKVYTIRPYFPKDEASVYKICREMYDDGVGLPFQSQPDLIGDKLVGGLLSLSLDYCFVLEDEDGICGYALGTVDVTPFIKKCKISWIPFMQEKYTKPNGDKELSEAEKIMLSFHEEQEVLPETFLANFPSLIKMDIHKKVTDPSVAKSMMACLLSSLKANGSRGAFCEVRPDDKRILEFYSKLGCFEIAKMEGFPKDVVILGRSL
Source text: The assay is based on the inhibition of the hydrolysis of fluorescein mono-B-D-N-Acetyl-Glucosamine (FM-GcNAc) (Mariappa et al. 2015, Biochem J470:255) by the recombinant human Meningioma Expressed Antigen 5 (MGEA5), also referred to as O-GlcNAcase (OGA). The hydrolysis FM-GlcNAc (Marker Gene technologies, cat #M1485) results in the formation of B-D-N-glucosamineacetate and fluorescein. The fluorescence of the latter can be measured at excitation wavelength 485 nm and emission wavelength 538 nm. An increase in enzyme activity results in anincrease in fluorescence signal. Full length OGA enzyme was purchased at OriGene (cat #TP322411). The enzyme was stored in 25 mM Tris.HCl, pH 7.3, 100 mM glycine, 10% glycerol at −20° C. Thiamet G and GlcNAcStatin were tested as reference compounds (Yuzwa et al. 2008 Nature Chemical Biology 4:483; Yuzwa et al. 2012 Nature Chemical Biology 8:393). The assay was performed in 200 mM Citrate/phosphate buffer supplemented with 0.005% Tween-20. 35.6 g Na2HPO4 2H2O (Sigma, #C0759) were dissolved in 1 L water to obtain a 200 mM solution. 19.2 g citric acid (Merck, #1.06580) was dissolved in 1 L water to obtain a 100 mM solution. pH of the sodiumphosphate solution was adjusted with the citric acid solution to 7.2. The buffer to stop the reaction consists of a 500 mM Carbonate buffer, pH 11.0. 734 mg FM-GlcNAc were dissolved in 5.48 mL DMSO to obtain a 250 mM solution and was stored at −20° C. OGA was used at a 2 nM concentration and FM-GcNAc at a 100 uM final concentration. Dilutions were prepared in assay buffer.
50 nl of a compound dissolved in DMSO was dispensed on Black Proxiplate™ 384 Plus Assay plates (Perkin Elmer, #6008269) and 3 μl fl-OGA enzyme mix added subsequently. Plates were pre-incubated for 60 min at room temperature and then 2 μl FM-GlcNAc substrate mix added.
Plates were briefly centrifuged for 1 min at 1000 rpm and incubate at room temperature for 6 h. To stop the reaction 5 μl STOP buffer were added and plates centrifuge again 1 min at 1000 rpm. Fluorescence was quantified in the Thermo Scientific Fluoroskan Ascent or the PerkinElmer EnVision with excitation wavelength 485 nm and emission wavelength 538 nm.
For analysis a best-fit curve is fitted by a minimum sum of squares method. From this an IC50 value and Hill coefficient was obtained. High control (no inhibitor) and low control (saturating concentrations of standard inhibitor) were used to define the minimum and maximum values.

[2] = target: T2, OGA (Homo sapiens, UniProt O60502); test: OGA cellular assay (ICC detection of O-GlcNAcylated proteins in HEK293 cells inducible for P301L mutant human Tau); assay type: cell-based; settings: 6 hours incubation; for Emax: HEK293, HEK293 cells inducible for P301L mutant human Tau; for EC50: read-out: Cellular hOGA, pEC50 (converted)
T2 construct: HEK293 cells inducible for P301L mutant human Tau (isoform 2N4R) were established at Janssen; endogenous in cells; host or cells: HEK293 cells inducible for P301L mutant human Tau (2N4R)
T2 sequence (O60502 1-916): T1 sequence (O60502 1-916)
Procedure: HEK293 cells inducible for P301L mutant human Tau (isoform 2N4R) were established at Janssen. Thiamet-G was used for both plate validation (high control) and as reference compound (reference EC50 assay validation). OGA inhibition is evaluated through the immunocytochemical (ICC) detection of O-GlcNAcylated proteins by the use of a monoclonal antibody (CTD110.6; Cell Signaling, #9875) detecting 0-GlcNAcylated residues as previously described (Dorfmueller et al. 2010 Chemistry & biology, 17:1250). Inhibition of OGA will result in an increase of 0-GlcNAcylated protein levels resulting in an increased signal in the experiment. Cell nuclei are stained with Hoechst to give a cell culture quality control and a rough estimate of immediate compounds toxicity, if any. ICC pictures are imaged with a Perkin Elmer Opera Phenix plate microscope and quantified with the provided software Perkin Elmer Harmony 4.1.
Cells were propagated in DMEM high Glucose (Sigma, #D5796) following standard procedures. 2 days before the cell assay cells are split, counted and seeded in Poly-D-Lysine (PDL) coated 96-wells (Greiner, #655946) plate at a cell density of 12,000 cells per cm^2 (4,000 cells per well) in 100p of Assay Medium (Low Glucose medium is used to reduce basal levels of GlcNAcylation) (Park et al. 2014 The Journal of biological chemistry 289:13519). At the day of compound test medium from assay plates was removed and replenished with 90 μl of fresh Assay Medium. 10 μl of compounds at a 10 fold final concentration were added to the wells. Plates were centrifuged shortly before incubation in the cell incubator for 6 hours. DMSO concentration was set to 0.2%. Medium is discarded by applying vacuum. For staining of cells medium was removed and cells washed once with 100 μl D-PBS (Sigma, #D8537). From next step onwards unless other stated assay volume was always 50p and incubation was performed without agitation and at room temperature. Cells were fixed in 50 μl of a 4% paraformaldehyde (PFA, Alpha aesar, #043368) PBS solution for 15 minutes at room temperature. […] Before analysis samples were washed 2 times manually for 5 minutes in ICC base buffer.
Imaging is performed using Perkin Elmer Phenix Opera using a water 20× objective and recording 9 fields per well. Intensity readout at 488 nm is used as a measure of O-GlcNAcylation level of total proteins in wells. To assess potential toxicity of compounds nuclei were counted using the Hoechst staining. IC50-values are calculated using parametric non-linear regression model fitting. As a maximum inhibition Thiamet G at a 200 uM concentration is present on each plate. In addition, a concentration response of Thiamet G is calculated on each plate.

[3] = HEK293 cells inducible for P301L mutant human Tau

Row | SMILES | Emax [1] | IC50 [1] | Emax ([2]; maximum = Thiamet G 200 uM) | EC50 [2, 3] | Enzymatic Emax (%) [1] | Cellular Emax (%) ([2]; HEK293 cells inducible for P301L mutant human Tau, maximum = Thiamet G 200 uM)
1 | CC(c1ccc2c(n1)OCCO2)N1CCC(Oc2cnc(C(F)(F)F)cn2)CC1 (centres unmarked) [Compound 114] | 97% | 0.316 µM | 31% | > 1 µM | – | –
2 | CC(c1ccc2c(n1)OCCO2)N1CCC(Oc2ccc(C(F)(F)F)cn2)CC1 (centres unmarked) [Compound 42] | 101% | 0.1 µM | 21% | > 1 µM | – | –
3 | COc1cc(OC2CCN(C(C)c3nc4nc(C)sc4cc3F)CC2)cc(C)n1 (centres unmarked) [Compound 79] | 101% | 0.00316 µM | 72% | 0.0398 µM | – | –
4 | Cc1cc(C)c(OC2CCN(C(C)c3nc4c(cc3F)OCCO4)CC2)nn1 (centres unmarked) [Compound 88] | 98% | 0.1 µM | 59% | 0.501 µM | – | –
5 | Cc1cc(OC2CCN(C(C)c3ccc4sc(C)nc4n3)CC2)c(Cl)c(C)n1 (centres unmarked) [Compound 27] | 99% | 0.1 µM | 76% | 0.501 µM | – | –
6 | Cc1ncccc1OC1CCN(C(C)c2ccc3c(n2)OCCO3)CC1 (centres unmarked) [Compound 116] | 96% | 0.126 µM | 42% | > 1 µM | – | –
7 | COc1cc(COC2CCN(C(C)c3nc4c(cc3F)OCCO4)CC2)cc(C)n1 (centres unmarked) [Compound 134] | 94% | 0.01 µM | 81% | 0.0631 µM | – | –
8 | COc1cc(OC2CCN(C(C)c3ccc4c(n3)OCCO4)CC2)ncc1C#N (centres unmarked) [Compound 103] | 97% | 0.0794 µM | 52% | – | – | –
9 | CC(c1ccc2c(n1)OCCO2)N1CCC(Oc2ccc(OC(F)(F)F)cn2)CC1 (centres unmarked) [Compound 96] | 99% | 0.0631 µM | 41% | > 1 µM | – | –
10 | Cc1cc(OC2CCN(C(C)c3nc4c(cc3F)OCCO4)CC2)ccn1 (centres unmarked) [Compound 162] | 98% | 0.0126 µM | 83% | 0.0631 µM | – | –
11 | Cc1ccnc(OC2CCN(C(C)c3ccc4c(n3)OCCO4)CC2)c1 (centres unmarked) [Compound 44] | 98% | 0.2 µM | 57% | 0.501 µM | – | –
12 | Cc1cc(COC2CCN(Cc3ccc4sc(C)nc4n3)CC2)cc(C)n1 [Compound 36] | 90% | 1.26 µM | 7% | > 1 µM | – | –
13 | CC(c1nc2c(cc1F)OCCO2)N1CCC(Oc2ccc(C#N)nn2)CC1 (centres unmarked) [Compound 92] | 97% | 0.0251 µM | 66% | 0.126 µM | – | –
14 | CC(c1ccc2c(n1)OCCO2)N1CCC(Oc2cc[nH]c(=O)c2)CC1 (centres unmarked) [Compound 93] | 98% | 0.251 µM | 34% | > 1 µM | – | –
15 | Cc1cc(OC2(CF)CCN(C(C)c3ccc4c(n3)OCCO4)CC2)cc(C)n1 (centres unmarked) [Compound 132] | 63% | 6.31 µM | 24% | > 1 µM | – | –
16 | Cc1ccc(OC2CCN(C(C)c3nc4c(cc3F)OCCO4)CC2)cn1 (centres unmarked) [Compound 94] | 96% | 0.01 µM | 82% | 0.0955 µM | – | –
17 | Cc1cc(OC2CCN(C(C)c3nc4c(cc3F)CCO4)CC2)c(Cl)c(C)n1 (centres unmarked) [Compound 35] | 101% | 0.00794 µM | 98% | 0.0251 µM | – | –
18 | CC(c1ccc2c(n1)OCCO2)N1CCC(Oc2cnc(Cl)nc2)CC1 (centres unmarked) [Compound 67] | 102% | 0.126 µM | 60% | 0.631 µM | – | –
19 | Cc1cc(OC2CCN(C(C)c3nc4c(cc3F)OCCO4)CC2)cc(C(F)(F)F)n1 (centres unmarked) [Compound 18] | 101% | 0.00631 µM | 79% | 0.0631 µM | – | –
20 | COc1cc(OC2CCN(C(C)c3ccc4sc(C)nc4n3)CC2)cc(C)n1 (single isomer, unassigned) [Compound 24] | – | 0.02 µM | – | 0.1 µM | 98% | 72%
21 | Cc1cc(NC2CCN(C(C)c3ccc4c(n3)OCCO4)CC2)cc(C)n1 (centres unmarked) [Compound 78] | 99% | 0.1 µM | 55% | 0.813 µM | – | –
